Experimental data as given in patent US4562190A, “Benzothiazolone derivatives, processes for preparation thereof and pharmaceutical compositions comprising the same” (Fujisawa Pharmaceutical Co., Ltd., priority 1983, dated 1985).
Read-outs that look alike come from different tables or passages of the source.

What was measured:
[1] = tested on: blood pressure; test: Antihypertensive activity (DOCA-treated, uninephrectomized rats, oral); format: in vivo, male Wistar rats; conditions: dose 1.0 mg/kg, DOCA/saline uninephrectomized rats, mean blood pressure 150-200 mmHg
Description: Five-week old male Wistar rats were uninephrectomized under anesthesia. Deoxycorticosterone acetate (DOCA) (30 mg/kg), suspended in peanut oil, was injected subcutaneously twice a week and 1% saline was substituted for the drinking water. Animals with mean blood pressure 150-200 mmHg were used for experiment between 5 and 7 weeks after surgery.
The test compound was administered orally. Blood pressure was measured at the femoral artery by means of a pressure transducer and recorded as electrically integrated values of mean arterial pressure.

[2] = tested on: left ventricular pressure (dp/dt max) and heart rate; test: Cardiotonic activity (anesthetized dogs, i.v.); format: in vivo, Mongrel dogs; conditions: dosage 1 mg/kg (printed "1."), injected into femoral vein; pentobarbital-anesthetized dogs; vs predosing period
Description: Mongrel dogs of either sex were anesthetized with sodium pentobarbital, 35 mg/kg, i.p.. The animals were allowed to breathe spontaneously. The left carotid artery was isolated and a catheter (USCI, #8F) filled with heparinized saline was inserted and advanced into the left ventricle. The catheter was connected to a pressure transducer (Nihonkohden, MPU-0.5A) to measure the left ventricular pressure, from which dp/dt max was derived by analog computing. To measure the systemic blood pressure the left femoral artery was cannulated. The blood pressure pulses was used to trigger a heart rate meter. Another catheter was positioned in the vena cave through right femoral vein for injection of drug. Systemic blood pressure, left ventricular pressure, dp/dt max and heart rate were recorded simultaneously on a polygram (Nihonkohden, RJG-4008).
Test compound was dissolved in dimethyl sulfoxide (0.04 ml/kg) and injected into the femoral vein. The parameters after dosing were compared with those during the predosing period.
Test results were represented in terms of percentage of dp/dt max changes (dp/dt M.C.) and percentage of heart rate changes (H.R.C.) calculated by following formulae. [formula]

[3] = tested on: platelet aggregation; test: Inhibitory activity on platelet aggregation; format: cell-based; conditions: Oryctolagus cuniculus, rabbit platelet rich plasma, 37° C.
Description: Platelet rich plasma (PRP) which contains 6.5-7.5×10^8 platelet/ml was prepared from rabbit blood. To the 200 μl of PRP, 5 μl of calcium chloride (1mM) and 50 μl of pH 7.4 Tris-acetate solution (5 mM) containing 120mM NaCl and test compound was added successively, and then stirred for 2 min. at 37° C. To the solution 5 μl of adenosine diphosphate (ADP) (2.5 μM) or collagen (2.5 μg/ml) was added as an aggregation inducer. Aggregation was measured by using an aggregometer (NKK HEMA TRACER 1).

SMILES: CC1CC(=O)NN=C1c1ccc2sc(=O)n(C)c2c1 (centres unmarked) [test compound .circle.1, 3-Methyl-5-(4-methyl-6-oxo-1,4,5,6-tetrahydro-3-pyridazinyl)benzothiazolone]
- Effect Max (mean ratio of maximum decrease of blood pressure) [1]: 63%

SMILES: CCOC(=O)Cn1c(=O)sc2ccc(C3=NNC(=O)CC3C)cc21 (centres unmarked) [test compound .circle.2, 3-Ethoxycarbonylmethyl-5-(4-methyl-6-oxo-1,4,5,6-tetrahydro-3-pyridazinyl)benzothiazolone]
- H.R.C. (percentage of heart rate changes) [2]: 22%
- dp/dt M.C. (percentage of dp/dt max changes) [2]: 63%

SMILES: CC1CC(=O)NN=C1c1ccc2sc(=O)[nH]c2c1 (centres unmarked) [test compound .circle.3, 5-(4-Methyl-6-oxo-1,4,5,6-tetrahydro-3-pyridazinyl)benzothiazolone]
- IC50 ([3]; inducer ADP (2.5 μM), read-out: ID50, ADP): 61 nM
- IC50 ([3]; inducer collagen (2.5 μg/ml), read-out: ID50, Collagen): 35 nM
